Here are results for eleven compounds from PMC10739260, “Shape-Based Virtual Screening of a Billion-Compound Library Identifies Mycobacterial Lipoamide Dehydrogenase Inhibitors” (ACS Bio & Med Chem Au, 2023).

Where two headings read alike, the source gives them in different places.

Assay [1] deals with T1, Mtb Lpd (Mycobacterium tuberculosis, UniProt P9WHH9).
T1 construct: made in house
The experiment in a line: Lpd enzyme assay (spectrophotometric, DTNB, lipoamide, NADH). The format is biochemical. As to conditions: for potency improvement over des-methyl screen hit: methylated analogue vs Z1765676493 / Z819807984, Lpd IC50; for IC50: dose response 100 to 0.005 μM, values marked * from one replicate; for inhibition at 10 µM: compound at 10 μM, read-out: LPD %inh ± SD at 10 μM. Here is the method:
The Lpd enzyme assay was performed at a CRO with a previously reported protocol.[9],[11] Briefly, the Lpd activity was measured by a spectrophotometric assay with DTNB, lipoamide, and NADH. Final concentrations of components in the reaction mixture were as follows: 125 μM NADH, 125 μM DTNB, 40 μM NAD+, 75 μM lipoamide in 25 mM potassium phosphate, and 1 mM EDTA pH 7.0. Compounds were tested initially at 10 μM. Compounds showing significant inhibition at 10 μM were tested in dose–response from 100 to 0.005 μM by serial dilutions. Curves were fit, and IC50 values were calculated using Prism dose–response inhibition analysis (four-parameter fit).

Assay [2] concerns Mtb. Kind of assay: Mtb MIC assay (bacterial growth inhibition). The format is cell-based, Mycobacterium tuberculosis. As to conditions: for Mtb MIC: Table S1, known actives used as probes in GPU Shape screen.
In another assay the target is T2, Lpd protein (Mycobacterium tuberculosis, UniProt P9WHH9).
T2 construct: made in house
T2 sequence (P9WHH9 1-464): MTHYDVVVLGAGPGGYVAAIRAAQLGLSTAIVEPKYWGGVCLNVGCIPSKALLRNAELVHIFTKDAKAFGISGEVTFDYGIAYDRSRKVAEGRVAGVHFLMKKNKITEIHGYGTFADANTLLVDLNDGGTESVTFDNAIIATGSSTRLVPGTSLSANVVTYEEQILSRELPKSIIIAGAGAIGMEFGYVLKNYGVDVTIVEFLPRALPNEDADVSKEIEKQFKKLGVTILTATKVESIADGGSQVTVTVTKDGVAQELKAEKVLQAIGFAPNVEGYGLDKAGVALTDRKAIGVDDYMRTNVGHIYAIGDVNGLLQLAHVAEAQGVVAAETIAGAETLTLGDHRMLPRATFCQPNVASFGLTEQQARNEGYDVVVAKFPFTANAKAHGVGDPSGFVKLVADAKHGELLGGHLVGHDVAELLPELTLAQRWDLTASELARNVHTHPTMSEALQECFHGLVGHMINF
The experiment in a line: Surface plasmon resonance (SPR) binding to immobilized Lpd. Conditions: 25 °C. A general note: In SPR one partner is held on a chip, and binding of the other changes the refractive index at the surface.

Assay [3] concerns Mtb. Details: method as in PMID 33527832. Conditions: Figure 1, representative sulfonamide series inhibitors; cited from earlier work.
For the next assay, the target named is T3, PDH complex (Mycobacterium tuberculosis, UniProt P9WHH9).
T3 sequence (P9WHH9 1-464): T2 sequence (P9WHH9 1-464)
The experiment in a line: PDH complex inhibition. The format is biochemical.

The target of assay [4] is T1, Mtb Lpd. As to conditions: read-out: Lpd IC50; Figure 1, representative sulfonamide series inhibitors; cited from earlier work.
The mark [5] stands for this setting: 1:1 Langmuir model, analyte line 013537.

Regarding `CC(=O)Nc1cccc(NC(=O)CN(C)S(=O)(=O)c2cc(C)cc(C(F)F)c2)c1` [1 (TDI-13537)], the “potency improvement over des-methyl screen hit” value at Mtb Lpd [1] is recorded as 15- to 20 fold. For the same compound, the “inhibition of Mtb bacterial growth in the MIC assay” value in the assay on Mtb [2] (data not shown) is recorded as “did not show inhibition”. In addition, at Lpd protein (setting [5]), the affinity, expressed as Kd, was 0.241 µM and the kd amounted to 0.01243 s⁻¹. Also, on Lpd protein (analyte line 013537-NADH), the affinity, expressed as Kd, was 0.291 µM and the kd is 0.01141 s⁻¹.
As to `CCN(CC(=O)Nc1ccc(N2CCOCC2)cc1)S(=O)(=O)c1cc(C)c(F)c(C(F)(F)F)c1` [Compound 2], on Mtb Lpd [1], the IC50 (as a rule, the concentration that inhibits the measured activity by half) is 0.37 µM and the “potency improvement over des-methyl screen hit” value is 15- to 20 fold.
Regarding `CCOC(=O)c1c(C)n[nH]c1S(=O)(=O)N(C)CC(=O)Nc1ccc(F)cc1` [Compound Z740306332], on Mtb Lpd [1], the inhibition at 10 µM was determined as 9.6 ± 1.8% and the IC50 is 100 µM.
The matching figures for `CCN(CC(=O)Nc1ccc(N2CCOCC2)cc1)S(=O)(=O)c1ccc(F)c(C(F)(F)F)c1` [Compound Z819807984]: 68.9 ± 0.9% and 5 ± 0.04 µM.
As to `COC(=O)c1cccc(NC2CCN(C(=O)c3cc(C)cc4cn[nH]c34)CC2)c1` [Compound Z1464810837], at Mtb Lpd [1], the inhibition at 10 µM is 15.7 ± 4.6% and half-maximal inhibition (IC50) required 30 µM.
The matching figures for `CCN(CC(=O)Nc1cccc(OC)c1)S(=O)(=O)c1cccc2c1NC(=O)CO2` [Compound Z1601661851]: 18.5 ± 1.6% and 30 µM.
The matching figures for `CN(CC(=O)Nc1cccc(F)c1)S(=O)(=O)c1cccc2c1NC(=O)CO2` [Compound Z1601662276]: 12.7 ± 1.2% and 100 µM.
For `CC(=O)Nc1cccc(NC(=O)CN(C)S(=O)(=O)c2cccc(C(F)F)c2)c1` [Compound Z1765676493] the same measures were 69.1 ± 2.2% and 3.5 ± 2.8 µM.
Consider `COc1ccc(NC(=O)CN(C)S(=O)(=O)c2cc(Br)cnc2N)cc1` [SL827], for which the “Mtb MIC” value in the assay with Mtb [3] was greater than 100 µM.
Take `Cc1cc(S(=O)(=O)N(C)CC(=O)Nc2ccn(C)c(=O)c2)c2[nH]ncc2c1` [TDI-010705]: the “Mtb MIC” value in the assay with Mtb [2] is 4 µM; in the assay with Mtb [3], 3.7 µM.
Consider `Cc1cc(S(=O)(=O)N2CCC[C@H]2C(=O)Nc2ccn(C)c(=O)c2)c2[nH]ncc2c1` [TDI-011002], for which the figures for the half-inhibitory concentration (IC50) on PDH complex and at Mtb Lpd [4] were 0.19 µM and 0.05 µM, respectively. The “Mtb MIC” value in the assay on Mtb [2] and with Mtb [3] was 25 µM each time.
